The results in this text go back to patent US3954737A, “Atropisomeric ansa ring compounds” (University of Illinois Foundation, priority 1974, dated 1976).

One test relates to Reverse Transcriptase. The test can be described thus: Reverse transcriptase (RNA-directed DNA polymerase) inhibition. It is filed as biochemical. Also noted: concentration or dose not given beside the values. An excerpt:
(§1) Tables II, III and IV below respectively set forth activities of representative atropisomeric forms of ansa ring compounds of the invention relative to the "normal" isomeric forms in the following assays: (A) reverse transcriptase (RNA-directed DNA polymerase); (B) bacterial RNA polymerase; (C) B. subtilis bacterial inhibition; (D) S. lutea bacterial inhibition; and, inhibition of numerous other bacterial strains.
The assay and work-up conditions for reverse transcriptase analysis were essentially those described by Brockman, et al., (Nature, 230, 249, (1971)), except for eliminating the phosphate from the washing solution (10 percent trichloroacetic acid).

In the next test the target is E.Coli RNA Polymerase (Escherichia coli, UniProt P0A8V2). In words: Bacterial RNA polymerase inhibition. Also noted: concentration or dose not given beside the values. The conditions noted are these: pH 7.9, 30°C, 15 min. It is filed as biochemical.
E.Coli RNA Polymerase, sequence (P0A8V2 whole entry): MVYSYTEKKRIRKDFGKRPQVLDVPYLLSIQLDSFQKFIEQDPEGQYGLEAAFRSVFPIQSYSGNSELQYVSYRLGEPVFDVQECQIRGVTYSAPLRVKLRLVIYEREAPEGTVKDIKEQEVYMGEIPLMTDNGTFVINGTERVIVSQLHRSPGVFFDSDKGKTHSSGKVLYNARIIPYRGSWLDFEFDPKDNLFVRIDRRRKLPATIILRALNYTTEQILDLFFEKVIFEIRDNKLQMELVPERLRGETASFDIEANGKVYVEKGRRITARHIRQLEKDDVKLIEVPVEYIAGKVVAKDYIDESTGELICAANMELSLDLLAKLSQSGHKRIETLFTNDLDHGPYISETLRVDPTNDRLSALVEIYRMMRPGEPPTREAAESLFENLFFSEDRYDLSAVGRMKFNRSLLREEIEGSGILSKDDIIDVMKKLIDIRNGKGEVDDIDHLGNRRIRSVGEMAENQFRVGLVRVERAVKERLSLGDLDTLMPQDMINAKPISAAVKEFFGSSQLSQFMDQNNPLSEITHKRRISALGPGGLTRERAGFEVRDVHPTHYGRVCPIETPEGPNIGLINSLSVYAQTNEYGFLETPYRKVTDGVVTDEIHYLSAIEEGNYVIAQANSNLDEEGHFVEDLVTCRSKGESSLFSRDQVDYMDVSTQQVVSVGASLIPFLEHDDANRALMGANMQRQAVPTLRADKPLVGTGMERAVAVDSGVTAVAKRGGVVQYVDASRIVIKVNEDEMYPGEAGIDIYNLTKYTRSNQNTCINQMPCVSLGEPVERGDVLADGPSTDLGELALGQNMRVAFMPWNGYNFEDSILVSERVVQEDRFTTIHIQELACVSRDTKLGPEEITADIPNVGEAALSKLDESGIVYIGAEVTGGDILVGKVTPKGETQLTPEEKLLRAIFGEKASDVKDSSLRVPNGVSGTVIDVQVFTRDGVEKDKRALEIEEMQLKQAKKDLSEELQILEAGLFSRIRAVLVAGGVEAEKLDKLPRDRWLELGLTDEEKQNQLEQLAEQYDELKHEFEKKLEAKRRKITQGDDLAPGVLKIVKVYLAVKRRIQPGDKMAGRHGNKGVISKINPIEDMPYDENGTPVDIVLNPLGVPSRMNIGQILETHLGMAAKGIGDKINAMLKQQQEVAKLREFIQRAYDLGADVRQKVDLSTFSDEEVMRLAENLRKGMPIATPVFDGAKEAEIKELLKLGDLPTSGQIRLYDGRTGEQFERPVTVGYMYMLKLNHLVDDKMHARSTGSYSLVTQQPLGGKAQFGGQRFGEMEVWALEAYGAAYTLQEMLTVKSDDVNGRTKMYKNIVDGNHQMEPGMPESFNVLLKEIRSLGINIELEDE
E.Coli RNA Polymerase, sequence (P0A8T7 whole entry partner): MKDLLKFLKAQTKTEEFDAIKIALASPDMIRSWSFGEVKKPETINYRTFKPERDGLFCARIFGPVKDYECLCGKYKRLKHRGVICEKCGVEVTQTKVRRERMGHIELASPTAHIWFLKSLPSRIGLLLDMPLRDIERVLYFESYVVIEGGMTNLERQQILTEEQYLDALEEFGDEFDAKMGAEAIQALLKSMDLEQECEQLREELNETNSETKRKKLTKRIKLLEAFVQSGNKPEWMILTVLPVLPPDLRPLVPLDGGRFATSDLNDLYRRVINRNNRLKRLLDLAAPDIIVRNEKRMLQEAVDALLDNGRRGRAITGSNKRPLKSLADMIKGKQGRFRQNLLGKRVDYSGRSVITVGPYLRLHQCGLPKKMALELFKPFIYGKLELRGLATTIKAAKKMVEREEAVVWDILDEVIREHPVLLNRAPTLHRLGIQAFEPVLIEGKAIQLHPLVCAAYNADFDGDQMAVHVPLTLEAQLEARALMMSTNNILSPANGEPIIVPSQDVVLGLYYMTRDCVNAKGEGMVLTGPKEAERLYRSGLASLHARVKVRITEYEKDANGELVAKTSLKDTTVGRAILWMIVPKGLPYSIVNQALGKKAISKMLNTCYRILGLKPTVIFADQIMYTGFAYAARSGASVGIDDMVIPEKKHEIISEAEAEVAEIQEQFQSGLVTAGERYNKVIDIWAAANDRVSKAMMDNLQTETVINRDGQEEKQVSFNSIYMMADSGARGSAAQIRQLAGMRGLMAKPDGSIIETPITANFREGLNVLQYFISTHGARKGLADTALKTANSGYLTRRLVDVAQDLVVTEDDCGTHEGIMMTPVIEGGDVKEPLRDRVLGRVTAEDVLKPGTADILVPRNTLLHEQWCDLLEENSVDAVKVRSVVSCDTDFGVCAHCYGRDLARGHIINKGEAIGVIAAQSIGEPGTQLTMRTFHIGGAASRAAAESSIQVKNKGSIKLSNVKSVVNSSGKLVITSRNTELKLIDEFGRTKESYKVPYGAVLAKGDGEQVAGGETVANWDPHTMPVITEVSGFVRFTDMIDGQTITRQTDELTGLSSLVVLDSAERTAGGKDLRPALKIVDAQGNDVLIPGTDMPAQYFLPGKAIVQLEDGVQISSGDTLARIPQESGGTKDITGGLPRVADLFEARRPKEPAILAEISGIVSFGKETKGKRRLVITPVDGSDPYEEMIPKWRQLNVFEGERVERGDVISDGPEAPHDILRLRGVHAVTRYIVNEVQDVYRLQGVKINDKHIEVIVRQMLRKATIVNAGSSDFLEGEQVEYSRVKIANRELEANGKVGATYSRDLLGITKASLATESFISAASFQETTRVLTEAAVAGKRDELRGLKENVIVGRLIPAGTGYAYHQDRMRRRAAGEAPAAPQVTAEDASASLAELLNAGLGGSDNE
E.Coli RNA Polymerase, sequence (P0A7Z4 whole entry partner): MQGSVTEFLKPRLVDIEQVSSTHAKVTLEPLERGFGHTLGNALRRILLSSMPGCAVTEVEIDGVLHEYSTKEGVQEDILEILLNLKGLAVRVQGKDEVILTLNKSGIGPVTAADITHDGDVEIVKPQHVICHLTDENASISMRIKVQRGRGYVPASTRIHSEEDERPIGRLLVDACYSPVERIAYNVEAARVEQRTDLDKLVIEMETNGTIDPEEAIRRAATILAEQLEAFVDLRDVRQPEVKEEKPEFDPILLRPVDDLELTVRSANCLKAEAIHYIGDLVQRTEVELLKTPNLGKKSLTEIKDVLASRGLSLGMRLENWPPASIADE
E.Coli RNA Polymerase, sequence (P0A800 whole entry partner): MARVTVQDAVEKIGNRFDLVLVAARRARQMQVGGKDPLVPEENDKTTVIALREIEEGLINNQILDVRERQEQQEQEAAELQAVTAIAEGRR
Text: as §1
The assay for bacterial RNA polymerase followed the procedure of Reusser (J. Bacteriol, 105, 580 (1971)). Assay mixtures were prepared containing in a total volume of 0.25 ml: Tris-hydrochloride buffer, pH 7.9, 5 μmoles; MgCl2, 1 μmole; mercaptoethanol, 3 μmoles; MnCl2, 0.25 μmole; quanosine triphosphate, cytidine triphosphate, uridine triphosphate, 0.1 μmole each; adenosine triphosphate 8-^14 C, 0.1 μmole containing 0.05 μCi; dAT, 0.2 units; polymerase, ~35 μg. The reaction mixtures were incubated at 30°C for 15 min.

The next test deals with B. subtilis. The test can be described thus: B. subtilis bacterial inhibition, zone of inhibition (paper disc on agar). As to conditions: 1/2 inch paper discs, 0.08 ml per disc. It is filed as cell-based, B. subtilis UC 564. The protocol: The assay for B. subtilis bacterial inhibition was obtained on plates with B. subtilis UC 564 spores in agar with the following composition per liter:
After autoclaving, 10 ml. of 20 percent glucose was added. The seeding rate was approximately 10^9 spores per liter. Test solutions were applied to 1/2 inch paper discs (Schleicher & Schuell 740E) with 0.08 ml. per disc. Zones of inhibition were recorded.

For the next test, the system named is S. aureus. The test can be described thus: S. aureus growth inhibition. It is filed as cell-based. The protocol: (§2) Assays for inhibition of other bacterial strains were carried out according to standard uniform procedures.
The next test deals with S. lutea. The test can be described thus: S. lutea bacterial inhibition. It is filed as cell-based. The conditions noted are these: brain heart broth, 37°, 16-18 hours. The protocol:
The assay for S. lutea inhibition was as follows. Water-soluble preparations were dissolved in brain heart infusion broth (Difco) to 1 mg./ml. Water-insoluble preparations were dissolved (or suspended) in dimethylformamide to 10 mg./ml. and diluted with brain heart broth to 1 mg./ml. Two-fold serial dilutions were made with broth starting with 1 mg./ml. with final volumes of 0.1 ml. per dilution. Overnight bacterial cultures were diluted 1:20,000 with brain heart and 0.1 ml. of diluted culture was added to each dilution of antibiotic (final total volume was 0.2 ml.). This was all done in plastic microtest plates (Microtest II Tissue Culture Plate, Bioquest). The plates were incubated at 37° for 16-18 hours and zones of inhibition were recorded.

For another test, the system named is K. pneumoniae. The test can be described thus: K. pneumoniae growth inhibition. It is filed as cell-based. The protocol: as §2
A further test relates to E. coli. In words: E. coli growth inhibition. It is filed as cell-based. Here is the method: as §2
The next test has as its system S. schottmuelleri. The test can be described thus: S. schottmuelleri growth inhibition. It is filed as cell-based. Here is the method: as §2
Another test concerns P. vulgaris. In words: P. vulgaris growth inhibition. It is filed as cell-based. Here is the method: as §2
In a further test the test system is M. avium. In words: M. avium growth inhibition. It is filed as cell-based. Here is the method:
as §2

The subject of a further test is P. oxalicum. The test can be described thus: P. oxalicum growth inhibition. It is filed as cell-based. The protocol:
as §2

In a further test the test system is S. pasteurianum. The test can be described thus: S. pasteurianum growth inhibition. It is filed as cell-based. The protocol:
as §2

A further test relates to B. cereus. In words: B. cereus growth inhibition. It is filed as cell-based. The protocol:
as §2

The next test deals with P. aeruginosa. The test can be described thus: P. aeruginosa growth inhibition. It is filed as cell-based. Here is the method:
as §2

As for `COC(=O)C1C(O)C(C)C(O)C(C)/C=C/C=C(\C)C(=O)Nc2c(C)c(OC(C)=O)c3c(c2O)C(=O)C(C)=C2OCOC(=C23)/C(C)=C\C(C)(O)C(O)C(C)C1O` (stereo not shown) [Atropisostreptovaricin C, atropisostreptovaricin C], the “Reverse Transcriptase % Inhibition” value in the test on Reverse Transcriptase (Table II) turned out to be 70%. The “E.Coli RNA Polymerase % Inhibition” value at E.Coli RNA Polymerase (Table III) amounted to 50%. Also, the “Zone of Inhibition” value is 14 mm in the test with B. subtilis; 20 mm in the test on S. aureus; 28 mm in the test on S. lutea; 0 mm in the test on K. pneumoniae; 0 mm in the test on E. coli; 0 mm with S. schottmuelleri. For the same compound, the “Zone of Inhibition” value with P. vulgaris worked out at 0 mm; in the test on M. avium it was 20 mm; in the test with P. oxalicum, 0 mm; in the test on S. pasteurianum, 0 mm; in the test with B. cereus it was 9 mm; in the test with P. aeruginosa, 0 mm.

On to `COC(=O)[C@@H]1[C@H](O)[C@H](C)[C@H](O)[C@H](C)/C=C\C=C(/C)C(=O)Nc2c(C)c(OC(C)=O)c3c(c2O)C(=O)C(C)=C2OCOC(=C23)/C(C)=C/[C@@](C)(O)[C@H](O)[C@@H](C)[C@H]1O` [Streptovaricin C, streptovaricin C, reference compound], for which the “Reverse Transcriptase % Inhibition” value with Reverse Transcriptase (Table II) was 31-53%. Further, on E.Coli RNA Polymerase (Table III), the “E.Coli RNA Polymerase % Inhibition” value came out at 78%. The “Zone of Inhibition” value with B. subtilis came to 22 mm; in the test with S. aureus, 26 mm; with S. lutea it was 33 mm; in the test on K. pneumoniae, 21 mm; with E. coli it was 13 mm; in the test on S. schottmuelleri, 10 mm. Moreover, the “Zone of Inhibition” value in the test on P. vulgaris is listed as 8 mm; in the test with M. avium, 15 mm; in the test on P. oxalicum it was 0 mm.

As to `CC(=O)Oc1c(C)c2c(O)c3c1C1=C(OCOC1=C(C)C3=O)C(C)=CC(C)(O)C(O)C(C)C(O)C1C(=O)OC(C(C)/C=C\C=C(C)C(=O)N2)C(C)C1O` (stereo not shown) [Streptovaricin Fc, streptovaricin Fc, reference compound], in the test on Reverse Transcriptase (Table II), the “Reverse Transcriptase % Inhibition” value turned out to be 68%. Moreover, the “E.Coli RNA Polymerase % Inhibition” value at E.Coli RNA Polymerase (Table III) came to 0%. Further, the “Zone of Inhibition” value with B. subtilis, in the test on S. aureus, in the test on S. lutea, in the test on K. pneumoniae, in the test on E. coli and in the test with S. schottmuelleri was 0 mm in each case. The “Zone of Inhibition” value amounted to 0 mm in the test with P. vulgaris; 14 mm in the test with M. avium; 0 mm in the test on P. oxalicum; 0 mm in the test on S. pasteurianum; 0 mm with B. cereus; 0 mm with P. aeruginosa.

Turning to “atropisostreptovaricin C triacetate cyclic benzeneboronate”, the “Reverse Transcriptase % Inhibition” value in the test with Reverse Transcriptase (Table IIA) is recorded as 77%. In addition, the “E.Coli RNA Polymerase % Inhibition” value at E.Coli RNA Polymerase (Table IIIA) came out at 23%.

With “atropisostreptovaricin C triacetate cyclic bromobenzeneboronate [Atropisostreptovaricin C Triacetate Cyclic p-Bromobenzeneboronate]”, the “Reverse Transcriptase % Inhibition” value in the test with Reverse Transcriptase (Table IIA) was 66%. For the same compound, the “E.Coli RNA Polymerase % Inhibition” value on E.Coli RNA Polymerase (Table IIIA) is listed as 46%.

Take atropisostreptovaricin Fc: the “Reverse Transcriptase % Inhibition” value with Reverse Transcriptase (Table II) was determined as 54%. Besides, the “E.Coli RNA Polymerase % Inhibition” value on E.Coli RNA Polymerase (Table III) turned out to be 0%. For the same compound, the “Zone of Inhibition” value with B. subtilis, in the test with S. aureus, with S. lutea, with K. pneumoniae, in the test with E. coli and in the test on S. schottmuelleri was 0 mm each time. Further, the “Zone of Inhibition” value with P. vulgaris, in the test on M. avium, in the test on P. oxalicum, in the test with S. pasteurianum, in the test with B. cereus and in the test on P. aeruginosa was 0 mm each time.

For the compound “streptovaricin C triacetate cyclic benzeneboronate [reference compound]”, the “Reverse Transcriptase % Inhibition” value in the test with Reverse Transcriptase (Table IIA) amounted to 44%. Further, the “E.Coli RNA Polymerase % Inhibition” value at E.Coli RNA Polymerase (Table IIIA) came out at 2%.

Regarding “streptovaricin C triacetate cyclic bromobenzeneboronate [reference compound]”, the “Reverse Transcriptase % Inhibition” value with Reverse Transcriptase (Table IIA) worked out at 57%. Further, at E.Coli RNA Polymerase (Table IIIA), the “E.Coli RNA Polymerase % Inhibition” value is 20%.
